Laboratory results as given in patent US7550459B2, “Tetrahydroquinoline analogues as muscarinic agonists” (Acadia Pharmaceuticals, Inc., priority 2001, dated 2009).
Where two headings read alike, the source gives them in different places.

What was measured:
M1 muscarinic receptor = biological target: T1, M1 muscarinic receptor (Homo sapiens, UniProt P11229); test: Receptor Selection and Amplification (R-SAT) assay, cloned M1 receptor; type: cell-based; parameters: M1 Eff: scale not given here; settings: for Emax: read-out: m1 % Efficacy
T1 construct: expressed in transfected cells
T1 sequence (P11229 1-460): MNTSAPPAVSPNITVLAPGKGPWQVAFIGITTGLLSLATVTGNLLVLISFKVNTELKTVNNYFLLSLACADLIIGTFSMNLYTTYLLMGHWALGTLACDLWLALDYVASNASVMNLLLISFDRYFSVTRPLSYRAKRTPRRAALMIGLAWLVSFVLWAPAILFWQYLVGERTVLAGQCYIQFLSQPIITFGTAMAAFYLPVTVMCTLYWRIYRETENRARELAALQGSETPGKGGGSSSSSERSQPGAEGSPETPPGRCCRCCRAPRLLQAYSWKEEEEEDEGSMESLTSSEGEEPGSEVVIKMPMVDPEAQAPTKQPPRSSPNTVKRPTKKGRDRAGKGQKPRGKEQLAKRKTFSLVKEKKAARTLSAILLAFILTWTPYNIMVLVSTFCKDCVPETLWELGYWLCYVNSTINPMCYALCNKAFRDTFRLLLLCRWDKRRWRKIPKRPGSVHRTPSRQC
Excerpt: (§1) The EC50 for an agonist is intended to denote the concentration of a compound needed to achieve 50% of a maximal response seen in an in vitro assay such as R-SAT. For inverse agonists, EC50 is intended to denote the concentration of a compound needed to achieve 50% inhibition of an R-SAT response from basal, no compound, levels.
(§2) A particularly convenient functional assay system is the receptor selection and amplification assay (R-SAT assay) in U.S. Pat. No. 5,707,798, which describes a method of screening for bioactive compounds by utilizing the ability of cells transfected with receptor DNA, e.g., coding for the different muscarinic subtypes, to amplify in the presence of a ligand of the receptor. Cell amplification is detected as increased levels of a marker also expressed by the cells.
(§3) Receptor Selection and Amplification (R-SAT) assays were carried out using the cloned M1-M5 receptors essentially as described in: Brauner-Osborne H, Brann M R. Pharmacology of muscarinic acetylcholine receptor subtypes (m1-m5): high throughput assays in mammalian cells. Eur J Pharmacol Jan. 4, 1996;295(1):93-102, and Spalding T A, Trotter C, Skjaerbaek N, Messier T L, Currier E A, Burstein E S, Li D, Hacksell U, Brann M R. Discovery of an ectopic activation site on the M(1) muscarinic receptor. Mol Pharmacol. 2002 June;61(6):1297-302.

M2 muscarinic receptor = biological target: T2, M2 muscarinic receptor (Homo sapiens, UniProt P08172); test: Receptor Selection and Amplification (R-SAT) assay, cloned M2 receptor; type: cell-based; parameters: M2 Eff: scale not given here
T2 construct: expressed in transfected cells
T2 sequence (P08172 1-466): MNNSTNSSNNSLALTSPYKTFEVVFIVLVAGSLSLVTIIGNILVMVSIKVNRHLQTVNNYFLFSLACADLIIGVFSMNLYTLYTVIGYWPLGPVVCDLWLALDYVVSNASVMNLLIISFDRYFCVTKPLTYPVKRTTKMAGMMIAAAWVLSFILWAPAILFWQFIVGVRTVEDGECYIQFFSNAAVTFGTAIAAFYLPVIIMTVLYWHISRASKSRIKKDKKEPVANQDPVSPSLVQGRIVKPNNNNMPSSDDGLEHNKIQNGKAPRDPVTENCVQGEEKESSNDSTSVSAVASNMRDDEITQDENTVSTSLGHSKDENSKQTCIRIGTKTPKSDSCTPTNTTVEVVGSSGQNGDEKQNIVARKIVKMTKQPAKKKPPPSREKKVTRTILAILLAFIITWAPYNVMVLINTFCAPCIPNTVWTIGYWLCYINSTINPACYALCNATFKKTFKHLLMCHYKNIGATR
Excerpt: as §1, §2, §3

[1] = R-SAT, second table (COMPOUND ID series)
[2] = R-SAT, second table (COMPOUND ID series), read-out: M1 pEC50 (converted)
[3] = R-SAT, second table (COMPOUND ID series), read-out: M2 pEC50 (converted)
[4] = M1 pEC50, R-SAT, second table (COMPOUND ID series)
[5] = M2 pEC50, R-SAT, second table (COMPOUND ID series)
[6] = R-SAT, cloned m1 receptor, read-out: m1 pEC50 (converted)
[7] = m1 pEC50, R-SAT, cloned m1 receptor

| SMILES | M1 Eff (M1 muscarinic receptor; [1]) | EC50 (M1 muscarinic receptor; [2]) [nM] | M2 Eff (M2 muscarinic receptor; [1]) | EC50 (M1 muscarinic receptor; [4]) [nM] | other results |
| --- | --- | --- | --- | --- | --- |
| C[C@@H](CN1C(=O)COc2ccccc21)CN1[C@@H]2CC[C@H]1CC(=NOCC1CC1)C2 (mixture of isomers) [Compound 00261537, 4-[3-(3-Cyclopropylmethoxyimino-8-aza-bicyclo[3.2.1]oct-8-yl)-2(R)-methyl-propyl]-4H-benzo[1,4]oxazin-3-one] | 126 | 126 | 58 | – | EC50 (M2 muscarinic receptor; [3]): 794 nM |
| CCCC=C1CCN(C[C@@H](C)CN2C(=O)COc3ccc(OC)cc32)CC1 (racemic) [Compound 107LH74-3D, (R,S)-4-[3-(4-Butylidenepiperidin-1-yl)-2-methylpropyl]-6-methoxy-4H-benzo[1,4]oxazin-3-one] | – | – | – | – | m1 % Efficacy (M1 muscarinic receptor; R-SAT, cloned m1 receptor): 97%; m1 pEC50 (M1 muscarinic receptor; R-SAT, cloned m1 receptor): 8.0 |
| CC(CN1CCC(OCC2CCC2)CC1)CN1C(=O)COc2ccccc21 (racemic) [Compound 00262197, 4-[(R,S)-3-(4-Cyclobutylmethoxypiperidin-1-yl)-2-methylpropyl]-4H-benzo[1.4]oxazin-3-one] | 122 | 158 | 28 | – | EC50 (M2 muscarinic receptor; [3]): 2510 nM |
| CC(CN1CCC(OC(=O)OCC2CCC2)CC1)CN1C(=O)COc2ccccc21 (racemic) [Compound 00262198, carbonic acid cyclobutylmethyl ester 1-[(R,S)-2-methyl-3-(3-oxo-2,3-dihydrobenzo[1.4]oxazin-4-yl)propyl]piperidine-4-yl ester] | 48 | 3980 | – | – | – |
| CC(CN1C(=O)COc2ccccc21)CN1[C@@H]2CC[C@H]1C[C@@H](OCC1CC1)C2 (mixture of isomers) [Compound 00262573, (R,S)-4-[3-(3a-Cyclopropylmethoxy-8-azabicyclo[3.2.1]oct-8-yl)-2-methylpropyl]-4H-benzo[1.4]oxazin-3-one] | 120 | – | 72 | 3.98 | EC50 (M2 muscarinic receptor; [5]): 50.1 nM |
| COC(CN1CCC(OCC2CC2)CC1)CN1C(=O)COc2cc(F)ccc21 (racemic) [Compound 00262784, (R,S)-4-[3-(4-Cyclopropylmethoxypiperidin-1-yl)-2-methoxypropyl]-7-fluoro-4H-benzo[1.4]oxazin-3-one] | 94 | 79.4 | 71 | – | EC50 (M2 muscarinic receptor; [3]): 2000 nM |
| CCc1cccc2c1OCC(=O)N2CC(C)CN1CCC(OCC2CC2)CC1 (racemic) [Compound 00262867, (R,S)-4-[3-(4-Cyclopropylmethoxypiperidin-1-yl)-2-methylpropyl]-8-ethyl-4H-benzo[1,4]oxazin-3-one] | 104 | 79.4 | 32 | – | EC50 (M2 muscarinic receptor; [3]): 1580 nM |
| CCON=C1CC2CCC(C1)N2C[C@@H](C)CN1C(=O)COc2ccccc21 (single isomer, unassigned) [Compound 00261434] | 110 | – | 50 | 631 | EC50 (M2 muscarinic receptor; [5]): 2000 nM |
| CCOCCC1CC2CCC(C1)N2CC(C)CN1C(=O)COc2ccccc21 (single isomer, unassigned) [Compound 00262993] | 55 | – | – | 79.4 | – |
| CCOCCC1CC2CCC(C1)N2CC(C)CN1C(=O)COc2ccccc21 (single isomer, unassigned) [Compound 00262998] | 102 | – | 56 | 7.94 | EC50 (M2 muscarinic receptor; [5]): 398 nM |
| CCCCC1CCN(CCCN2CCCc3ccc(C(F)(F)F)cc32)CC1 [Compound 55LH54, 1-[3-(4-Butyl-piperidin-1-yl)-propyl]-7-trifluoromethyl-12.3.4-tetrahydro-quinoline] | – | – | – | – | Emax (M1 muscarinic receptor; R-SAT, cloned m1 receptor): 57%; EC50 (M1 muscarinic receptor; [6]): 398 nM |
| CCCCC1CCN(CCCN2C(=O)COc3ccc(C(C)=O)cc32)CC1 [Compound 64LHY89-5, 6-Acetyl-4-[3-(4-butyl-piperidin-1-yl)-propyl]-4H-benzo[1,4]oxazin-3-one] | – | – | – | – | Emax (M1 muscarinic receptor; R-SAT, cloned m1 receptor): 45%; EC50 (M1 muscarinic receptor; [6]): 2510 nM |
| CCCC=C1CC2CCC(C1)N2CCCN1C(=O)COc2ccccc21 [Compound 81MF24, 4-[3-(3-Butylidene-8-aza-bicyclo[3.2.1]oct-8-yl)-propyl]-4H-benzo[1,4]oxazin-3-one] | – | – | – | – | EC50 (M1 muscarinic receptor; [7]): 15.8 nM; Emax (M1 muscarinic receptor): 96%; EC50 (M2 muscarinic receptor; m2 pEC50, R-SAT, cloned m2 receptor): 100 nM; Emax (M2 muscarinic receptor; read-out: m2 % Efficacy): 70% |
| CCCCC1CCN(CCCN2C(=O)CCc3c2ccc(F)c3C)CC1 [Compound 107LH95-1, 1-[3-(4-Butyl-piperidin-1-yl)propyl]-6-fluoro-5-methyl-3,4-dihydro-1H-quinolin-2-one] | – | – | – | – | Emax (M1 muscarinic receptor; R-SAT, cloned m1 receptor): 103%; EC50 (M1 muscarinic receptor; [6]): 25.1 nM |
| CCCCCC1CC2CC[C@@H](C1)N2C[C@@H](C)CN1C(=O)COc2cc(F)ccc21 (stereo partly drawn) [Compound 112KK20-c5, (R,S)-7-Fluoro-4-[2-methyl-3-(3-pentyl-8-azabicyclo[3.2.1]oct-8-yl)propyl]-4H-benzo[1,4]oxazin-3-one] | – | – | – | – | EC50 (M1 muscarinic receptor; [7]): 5.01 nM; Emax (M1 muscarinic receptor): 117% |
| O=C1CCc2cc(F)c(F)cc2N1CCCN1C2CCC1CC(=CCOCC1CC1)C2 [Compound 00262356, 1-{3-[3-(2-Cyclopropylmethoxyethylidene)-8-azabicyclo[3.2.1]oct-8-yl]-propyl}-6,7-difluoro-3,4-dihydro-1H-quinolin-2-one] | 46 | – | – | 31.6 | – |
| CC(CN1C(=O)COc2ccccc21)CN1C2CCC1CC(=CCOCC1CC1)C2 [Compound 00262357, 4-{(R,S)-3-[3-(2-Cyclopropylmethoxyethylidene)-8-aza-bicyclo[3.2.1]oct-8-yl]-2-methylpropyl}-4H-benzo[1.4]oxazin-3-one] | 79 | – | – | 12.6 | – |
| O=C1COc2cc(F)cc(F)c2N1CCCN1CCC(OCC2CC2)CC1 [Compound 00262471, 4-[3-(4-Cyclopropylmethoxypiperidin-1-yl)propyl]-5,7-difluoro-4H-benzo[1,4]oxazin-3-one] | 86 | 794 | – | – | – |
| O=C1COc2ccc(F)c(F)c2N1CCCN1CCC(OCC2CC2)CC1 [Compound 00262696, 4-[3-(4-Cyclopropylmethoxypiperidin-1-yl)propyl]-5,6-difluoro-4H-benzo[1,4]oxazin-3-one] | 83 | 631 | – | – | – |
| O=C1COc2c(F)ccc(F)c2N1CCCN1CCC(OCC2CC2)CC1 [Compound 00262869, 4-[3-(4-Cyclopropylmethoxypiperidin-1-yl)propyl]-5,8-difluoro-4H-benzo[1,4]oxazin-3-one] | 32 | 1580 | – | – | – |
| O=C1COc2c(F)cc(F)cc2N1CCCN1CCC(OCC2CC2)CC1 [Compound 00262874] | 87 | 631 | – | – | – |
| CCOCC[C@@H]1C[C@H]2CC[C@@H](C1)N2C[C@H](C)CN1C(=O)COc2ccccc21 [Compound 00263034, (S)-4-{3-[3β-(2-Ethoxyethyl)-8-azabicyclo[3.2.1]oct-8-yl]-2-methylpropyl}-4H-benzo[1.4]oxazin-3-one] | 68 | – | – | 158 | – |
| COCC[C@H]1C[C@H]2CC[C@@H](C1)N2C[C@H](C)CN1C(=O)COc2ccccc21 [Compound 00263035, (S)-4-{3-[3a-(2-Methoxyethyl)-8-azabicyclo[3.2.1]oct-8-yl]-2-methylpropyl}-4H-benzo[1.4]oxazin-3-one] | 97 | – | – | 251 | – |
